Laboratory results published in publication PMC5861040, “Identification of di-substituted ureas that prevent growth of trypanosomes through inhibition of translation initiation” (Scientific Reports, 2018).
“Also recorded” adds a separate entry of the source.

How the values were obtained:
T. cruzi epimastigotes [1] = experiment: Alamar Blue viability assay of T. cruzi epimastigotes; format: cell-based, Trypanosoma cruzi (Y strain); details: Trypanosoma cruzi, 72 h, epimastigotes incubated 3 days with compound; for EC50: concentration inhibiting 50% of multiplication; for EC90: concentration inhibiting 90% of multiplication
Method: T. cruzi epimastigotes were incubated in culture medium for three days with 25 different compounds at 10 µM.
T. cruzi epimastigotes at 1 × 10^7/mL in 50 µL were incubated in 96-wells plates with the same volume of compounds pre-diluted in 50 µL of LIT medium for 48 hours at 28 °C. LLC-MK2 cells (3 × 10^3) in 100 µL of medium were added to 96 well plates. After 5 hours, the medium was replaced by fresh medium containing serial dilutions of test compounds and incubations proceeded for 72 hours at 37 °C. In both cases, 10 µL of AlamarBlue (Thermo Fisher Scientific) was added and the plates were further incubated for 18 hours at 28 °C for epimastigotes and 4 hours at 37 °C for mammalian cells. Absorbance at 570 nm and 600 nm were measured by using a SpectraMax M3 (Molecular Devices). The differences between absorbance at 570 nm and 600 nm for each well was normalized against a blank value for medium without parasites and lysed cells. Alternatively, L6 rat myoblast cell death and lysis were determined using the cytotoxicity Detection Kit Plus LDH Version 6 (Roche) after 72 hours incubation with the indicated compounds using the manufacturer protocol. […] Each compound was tested in triplicates in at least two independent experiments, with exceptions appointed on Table 1. Selective index was estimated by the ratio between LLC-MK2 EC50 and epimastigotes EC50 on Table 1.

heme regulated kinase = system: heme regulated kinase; parameters: method as in PMID 21765405; details: cited from earlier work
T. cruzi epimastigotes [2] = experiment: T. cruzi epimastigote multiplication in culture (parasite counting); format: cell-based, Trypanosoma cruzi (Y strain)
[3] = system: T. brucei procyclic form (PCF); experiment: T. brucei procyclic form multiplication (parasite counting); format: cell-based, Trypanosoma brucei; details: 48 hours at 28 °C, Fig. 1B
mammalian eIF2α kinases = system: mammalian eIF2α kinases; parameters: method as in PMID 21765405, PMID 28590739; details: cited from earlier work

Q: Which EC50 (T. cruzi epimastigotes [1]) does the source give for `O=C(Cn1ccnc1[N+](=O)[O-])NCc1ccccc1` [BZN, Benznidazole] here?
A: 211 ± 3 µM

Q: What about the EC90 (T. cruzi epimastigotes [1]) of the same compound?
A: 960 ± 25 µM

Q: For `O=C(Nc1ccc(Cl)c(Cl)c1)Nc1ccc2nnsc2c1` [BTdCPU, 1-(benzo [d][1,2,3]thiadiazol-6-yl)-3-(3,4-dichlorophenyl) urea], which “activity on heme regulated kinase leading to eIF2α phosphorylation” value (heme regulated kinase) is on record?
A: activator

Q: Which “effect on T. cruzi epimastigote multiplication at 10 µM” value (T. cruzi epimastigotes [2]; 10 µM, three days in culture medium) does the source give for `O=C(Nc1ccc(Cl)c(Cl)c1)Nc1cc([N+](=O)[O-])ccc1Cl` [NCPdCPU, 1-(2-chloro-5-nitrophenyl)-3-(3,4-dichlorophenyl) urea] here?
A: unable to produce any visible effect; also recorded: no activity

Q: And the “inhibition of epimastigote multiplication (counting)” value (T. cruzi epimastigotes [2]; all tested concentrations, 48 hours, Fig. 1A)?
A: minimal inhibition

Q: What about the EC50 (T. cruzi epimastigotes [1]) of the same compound?
A: > 10 µM

Q: And the EC90 (T. cruzi epimastigotes [1])?
A: > 10 µM

Q: What about the “multiplication of T. brucei PCF” value [3] of the same compound?
A: not

Q: What about the “activation of mammalian eIF2α kinases” value (mammalian eIF2α kinases) of the same compound?
A: failed to activate

Q: And the “activity on heme regulated kinase leading to eIF2α phosphorylation” value (heme regulated kinase)?
A: inactive
